Results: PubChem BioAssay (NCI)
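A five-concentration, 48-hour dose response in 96-well plates underlies each endpoint, interpolated linearly between surrounding concentrations. TGI: total growth inhibition.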

Assays:
Assay in all cases: NCI tumour cell line growth inhibition, 48 h
COLO 205 colon = test system: COLO 205 colon
U251 CNS = test system: U251 CNS
786-0 renal = test system: 786-0 renal
T-47D breast = test system: T-47D breast
MALME-3M melanoma = test system: MALME-3M melanoma
MOLT-4 leukemia = test system: MOLT-4 leukemia
HCC-2998 colon = test system: HCC-2998 colon
HS 578T breast = test system: HS 578T breast
LOX IMVI melanoma = test system: LOX IMVI melanoma
NCI-H23 lung = test system: NCI-H23 lung
NCI-H226 lung = test system: NCI-H226 lung
OVCAR-5 ovarian = test system: OVCAR-5 ovarian
TK-10 renal = test system: TK-10 renal
CAKI-1 renal = test system: CAKI-1 renal
MDA-MB-231 breast = test system: MDA-MB-231 breast
A498 renal = test system: A498 renal
HT29 colon = test system: HT29 colon
SF-539 CNS = test system: SF-539 CNS
OVCAR-4 ovarian = test system: OVCAR-4 ovarian

SMILES	TGI (COLO 205 colon) [µM]	TGI (U251 CNS) [µM]	TGI (786-0 renal) [µM]	TGI (T-47D breast) [µM]	TGI (MALME-3M melanoma) [µM]	TGI (MOLT-4 leukemia) [µM]	TGI (HCC-2998 colon) [µM]	TGI (HS 578T breast) [µM]	TGI (LOX IMVI melanoma) [µM]	TGI (NCI-H23 lung) [µM]	TGI (NCI-H226 lung) [µM]	TGI (OVCAR-5 ovarian) [µM]	TGI (TK-10 renal) [µM]	TGI (CAKI-1 renal) [µM]	TGI (MDA-MB-231 breast) [µM]	TGI (A498 renal) [µM]	TGI (HT29 colon) [µM]	TGI (SF-539 CNS) [µM]	TGI (OVCAR-4 ovarian) [µM]
Cc1nc2ccc(S(=O)(=O)NS(=O)(=O)c3ccc(-c4ccccc4)cc3)cc2c(=O)n1NS(=O)(=O)c1ccc(-c2ccccc2)cc1	> 100	> 100	> 100	> 100	> 100	> 100	> 100	> 100	> 100	> 100	> 100	> 100	> 100	> 100	> 100	> 100	> 100	> 100	> 100
C[C@H]1C2Cc3cc(O)ccc3[C@@]1(C)CCN2CCc1ccc(N)cc1	> 100	33.9	30.7	> 100	34.8	> 100	26.4	> 100	28.2	> 100	> 100	> 100	> 100	> 100	> 100	> 100	31.9	31.3	> 100
COc1cc(/C=N/N=C(\N)NO)cc(OC)c1OC	> 100	> 100	39.2	> 100	82.7	> 100	> 100	> 100	> 100	> 100	73.8	> 100	> 100	> 100	> 100	> 100	> 100	75.7	> 100
CCCCCCCCC/C=C1/CC(CO)(COC(=O)CC(C(C)C)C(C)C)OC1=O (stereo not given)	4.64	25.6	16.1	19	14.3	35.4	9.86	3.91	24.7	26.9	21.5	24.6	15.1	17.4	15.6	12.6	29.9	24.2	28.4
CCOC(=O)c1sc2c(c1OC(=O)c1cc(OC)c(OC)c(OC)c1)c(=O)n(-c1ccccc1)c(=S)n2-c1ccccc1	> 100	> 100	> 100	> 100	> 100	> 100	> 100	> 100	> 100	> 100	> 100	> 100	> 100	> 100	> 100	> 100	> 100	> 100	> 100
CCOC(=O)C(=CNc1ccc(N(C2=NCC(C)S2)c2ccc(F)c(Cl)c2)cc1)C(=O)OCC (stereo not given)	33.3	48.1	33.2	49.5	39.4	41.6	32	55.3	34.5	33.9	36.6	39	57.1	> 100	30.9	41.1	34.7	46.4	65.3
C=C1C[C@@H](O)[C@@H](Br)C(C)(C)[C@@]12C=CC(=O)CC2	4.34	> 100	> 100	> 100	> 100	> 100	> 100	> 100	> 100	> 100	> 26.3	13.7	> 100	> 100	> 100	> 100	> 100	> 100	> 100
COc1c2c(nc3ccccc13)-c1cc(C(CC(=O)OC(C)(C)C)C(=O)OC(C)C)c(CO)c(=O)n1C2 (stereo not given)	> 100	> 100	> 100	> 100	> 100	> 100	> 100	> 100	> 100	> 100	> 100	> 100	> 100	> 100	> 100	> 100	> 100	98.4	> 100
Cc1ccc2nc3n[nH]c(N)c3nc2c1	> 100	> 100	> 100	> 100	> 100	> 100	> 100	> 100	> 100	> 100	> 100	> 100	> 100	> 100	> 100	> 100	> 100	> 100	> 100
O=[N+]([O-])C(/C(Cl)=C(\Cl)Br)=C(/Cl)SCc1ccccc1	4.86	18.5	4.06	10.9	18.7	3.35	25.1	50.7	3.95	14.9	36.7	26.2	10.8	3.78	7.96	21.2	5.54	25.5	11.4
